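Protocol summary: plate cells (96-well), add compound at 5 concentrations, incubate 48 h, interpolate endpoints linearly. GI50 marks 50% less growth. TGI is the concentration that stops growth completely.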
Columns and labels:
Experiment in all cases: DTP human tumour cell line panel, 48 h
CCRF-CEM leukemia = system: CCRF-CEM leukemia
HS 578T breast = system: HS 578T breast
NCI-H23 lung = system: NCI-H23 lung
HOP-92 NSCLC = system: HOP-92 NSCLC
SN12C renal = system: SN12C renal
PC-3 prostate = system: PC-3 prostate
MDA-MB-231 breast = system: MDA-MB-231 breast
M14 melanoma = system: M14 melanoma
NCI-H460 lung = system: NCI-H460 lung
MDA-MB-435 = system: MDA-MB-435
COLO 205 colon = system: COLO 205 colon
SK-MEL-28 melanoma = system: SK-MEL-28 melanoma
UACC-62 melanoma = system: UACC-62 melanoma
DU-145 prostate = system: DU-145 prostate
MOLT-4 leukemia = system: MOLT-4 leukemia
SR leukemia = system: SR leukemia
UO-31 renal = system: UO-31 renal
CAKI-1 renal = system: CAKI-1 renal
SF-295 CNS = system: SF-295 CNS
OVCAR-5 ovarian = system: OVCAR-5 ovarian
HOP-62 NSCLC = system: HOP-62 NSCLC
SK-MEL-2 melanoma = system: SK-MEL-2 melanoma
SW-620 colon = system: SW-620 colon
NCI/ADR-RES ovarian = system: NCI/ADR-RES ovarian
A549 NSCLC = system: A549 NSCLC
HCC-2998 colon = system: HCC-2998 colon
BT-549 breast = system: BT-549 breast
TK-10 renal = system: TK-10 renal
RPMI-8226 leukemia = system: RPMI-8226 leukemia
HT29 colon = system: HT29 colon
OVCAR-3 ovarian = system: OVCAR-3 ovarian
NCI-H522 lung = system: NCI-H522 lung
SF-539 CNS = system: SF-539 CNS
OVCAR-4 ovarian = system: OVCAR-4 ovarian
NCI-H226 lung = system: NCI-H226 lung
HCT-116 colon = system: HCT-116 colon
SK-MEL-5 melanoma = system: SK-MEL-5 melanoma
HL-60(TB) leukemia = system: HL-60(TB) leukemia
HCT-15 colon = system: HCT-15 colon
UACC-257 melanoma = system: UACC-257 melanoma
SK-OV-3 ovarian = system: SK-OV-3 ovarian
SNB-75 CNS = system: SNB-75 CNS
MCF7 breast = system: MCF7 breast
SF-268 CNS = system: SF-268 CNS
KM12 colon = system: KM12 colon
ACHN renal = system: ACHN renal
LOX IMVI melanoma = system: LOX IMVI melanoma
OVCAR-8 ovarian = system: OVCAR-8 ovarian
IGROV1 ovarian = system: IGROV1 ovarian
MALME-3M melanoma = system: MALME-3M melanoma
A498 renal = system: A498 renal
T-47D breast = system: T-47D breast
U251 CNS = system: U251 CNS
EKVX NSCLC = system: EKVX NSCLC
786-0 renal = system: 786-0 renal
RXF 393 renal = system: RXF 393 renal
K-562 leukemia = system: K-562 leukemia
SNB-19 CNS = system: SNB-19 CNS

## CN1CCN(c2ccc3nc(-c4c5cccccc-5[nH]c4=O)[nH]c3c2)CC1
CCRF-CEM leukemia
  GI50: 10.1 µM
  TGI: > 84.1 µM
HS 578T breast
  GI50: 13 µM
  TGI: > 100 µM
NCI-H23 lung
  GI50: 13.9 µM
  TGI: 51.7 µM
HOP-92 NSCLC
  GI50: 18 µM
  TGI: > 100 µM
SN12C renal
  GI50: 5.37 µM
  TGI: > 80.9 µM
PC-3 prostate
  GI50: 17.4 µM
  TGI: > 100 µM
MDA-MB-231 breast
  GI50: 11.8 µM
  TGI: 36.7 µM
M14 melanoma
  GI50: 13.3 µM
  TGI: 27.8 µM
NCI-H460 lung
  GI50: 5.45 µM
  TGI: 27.2 µM
MDA-MB-435
  GI50: 14.3 µM
  TGI: 29.7 µM
COLO 205 colon
  GI50: 8.39 µM
  TGI: 22.2 µM
SK-MEL-28 melanoma
  GI50: 15.6 µM
  TGI: 30.3 µM
UACC-62 melanoma
  GI50: 19.6 µM
  TGI: 43.4 µM
DU-145 prostate
  GI50: 9.67 µM
  TGI: 35.8 µM
MOLT-4 leukemia
  GI50: 3.49 µM
  TGI: 22.3 µM
SR leukemia
  GI50: 12.7 µM
  TGI: 49.5 µM
UO-31 renal
  GI50: 3.53 µM
  TGI: 52.9 µM
CAKI-1 renal
  GI50: 7.29 µM
  TGI: > 62.1 µM
SF-295 CNS
  GI50: 20.3 µM
  TGI: > 76.5 µM
OVCAR-5 ovarian
  GI50: 15.9 µM
  TGI: 52.1 µM
HOP-62 NSCLC
  GI50: 10.5 µM
  TGI: 54.7 µM
SK-MEL-2 melanoma
  GI50: 27.1 µM
  TGI: > 66.9 µM
SW-620 colon
  GI50: 5.79 µM
  TGI: 43.7 µM
NCI/ADR-RES ovarian
  GI50: 23.4 µM
  TGI: 97.4 µM
A549 NSCLC
  GI50: 7.58 µM
  TGI: > 59.3 µM
HCC-2998 colon
  GI50: 13.7 µM
  TGI: 37 µM
BT-549 breast
  GI50: 13.4 µM
  TGI: 66 µM
TK-10 renal
  GI50: 27.9 µM
  TGI: > 74.5 µM
RPMI-8226 leukemia
  GI50: 16.8 µM
  TGI: 62.4 µM
HT29 colon
  GI50: 8 µM
  TGI: 23.1 µM
OVCAR-3 ovarian
  GI50: 17.2 µM
  TGI: 58.2 µM
NCI-H522 lung
  GI50: 15.6 µM
  TGI: > 46.8 µM
SF-539 CNS
  GI50: 10.1 µM
  TGI: 22.8 µM
OVCAR-4 ovarian
  GI50: 13.9 µM
  TGI: 55.2 µM
NCI-H226 lung
  GI50: 7.18 µM
  TGI: 55.9 µM
HCT-116 colon
  GI50: 9.55 µM
  TGI: 25.5 µM
SK-MEL-5 melanoma
  GI50: 14.8 µM
  TGI: 28.3 µM
HL-60(TB) leukemia
  GI50: 13.7 µM
  TGI: 33.5 µM
HCT-15 colon
  GI50: 11.5 µM
  TGI: 55.9 µM
UACC-257 melanoma
  GI50: 17.6 µM
  TGI: 35.3 µM
SK-OV-3 ovarian
  GI50: 9.43 µM
  TGI: 83.1 µM
SNB-75 CNS
  GI50: 7.64 µM
  TGI: > 45.2 µM
MCF7 breast
  GI50: 6.27 µM
  TGI: 32.1 µM
SF-268 CNS
  GI50: 11.9 µM
  TGI: 40.3 µM
KM12 colon
  GI50: 0.266 µM
  TGI: 13.9 µM
ACHN renal
  GI50: 6.09 µM
  TGI: 60.9 µM
LOX IMVI melanoma
  GI50: 7.78 µM
  TGI: 22.4 µM
OVCAR-8 ovarian
  GI50: 11.3 µM
  TGI: > 72.2 µM
IGROV1 ovarian
  GI50: 5.27 µM
  TGI: 45.5 µM
MALME-3M melanoma
  GI50: 14.6 µM
  TGI: 31 µM
A498 renal
  GI50: 4.77 µM
  TGI: 21.4 µM
T-47D breast
  GI50: 30.8 µM
  TGI: > 91.7 µM
U251 CNS
  GI50: 11.6 µM
  TGI: 41 µM
EKVX NSCLC
  GI50: 29.4 µM
  TGI: > 100 µM
786-0 renal
  GI50: 11.2 µM
  TGI: 46.6 µM
RXF 393 renal
  GI50: 3.39 µM
  TGI: 15.8 µM
K-562 leukemia
  GI50: 10.6 µM
  TGI: 53.4 µM
SNB-19 CNS
  GI50: 12.3 µM
  TGI: 71.6 µM

— PubChem BioAssay (NCI)
